# Measured values reported in patent US10683553B2, “Method for determining sensitivity to simultaneous inhibitor against PARP and Tankyrase” (THE ASAN FOUNDATION, priority 2015, dated 2020).
# “Also recorded” adds a separate entry of the source.
# Tests used:
# [1] = system: SW620 human colon cancer cell line; assay: Trypan blue staining apoptosis assay; assay type: cell-based; details: SW620 (p53 MT/LIG4 WT); 25 μM and 50 μM, 48 hours
# From the text: (§1) In order to analyze the degree of apoptosis of Compound A, which is a novel PARP/Tankyrase simultaneous inhibitor according to a p53 genotype and LIG4 genotype, the present inventors treated a novel PARP/Tankyrase simultaneous inhibitor, Compound A, and a competitive drug PARP inhibitor, olaparib, in RKO, LoVo human colon cancer cell line in which the p53 gene is a normal type and the LIG4 gene is a mutant type and an SW620 human colon cancer cell line in which the p53 gene is a mutant type and the LIG4 gene is a normal type. The number of cells was measured by trypan blue staining assay to confirm the degree of apoptosis. The conditions and methods of the experiment were as follows: RKO, LoVo human colon cancer cell line in which the p53 gene is a normal type and the LIG4 gene is a mutant type and the SW620 human colon cancer cell line in which the p53 gene is a mutant type and the LIG4 gene is a normal type were cultured in RPMI1640 (10% FBS, 1% penicillin/streptomycin) and cultured in a 60 mm plate at 1×10^5 per well for 24 hours at 37° C. Compound A, which is a novel PARP/Tankyrase simultaneous inhibitor, and olaparib, which is a competitive drug PARP inhibitor, were treated with each of 25 μM and 50 μM and were cultured for 48 hours. The number of cells was measured by trypan blue staining assay to confirm the degree of apoptosis.
# (§2) In order to analyze the degree of apoptosis of Compounds A and B, which are novel PARP/Tankyrase simultaneous inhibitors, in a cell line RKO in which the p53 genotype is a normal type and an LIG4 genotype is a mutant type, a cell line SW620 in which the p53 genotype is a mutant type and an LIG4 genotype is a normal type, a cell line HCT8 in which the p53 genotype and an LIG4 genotype are normal, and a cell line KM12C in which the p53 genotype and an LIG4 genotype are mutant, the human colon cancer cell lines of RKO, HCT, SW620 and KM12C with different p53 genotype and LIG4 genotype were cultured in RPMI1640 (10% FBS, 1% penicillin/streptomycin) and cultured in a 60 mm plate at 1×10^5 per well for 24 hours at 37° C. Compounds A and B, which are novel PARP/Tankyrase simultaneous inhibitors, and olaparib, which is a competitive drug PARP inhibitor, and NVP-TNKS656, which is a Tankyrase inhibitor, were treated with each of 25 μM and 50 μM. After 48 hours of culturing, the number of cells was measured by trypan blue staining assay to confirm the degree of apoptosis.
# [2] = system: RKO human colon cancer cell line; assay: Trypan blue staining apoptosis assay; assay type: cell-based; details: RKO (p53 WT/LIG4 MT); 25 μM and 50 μM, 48 hours
# From the text: as §1
# In order to analyze the degree of apoptosis of Compound A, which is a novel PARP/Tankyrase simultaneous inhibitor, according to the p53 genotype and an LIG4 genotype, the present inventors treated Compounds A and B, which are novel PARP/Tankyrase simultaneous inhibitors, in the RKO and LoVo human colon cancer cell lines in which the p53 gene is a normal type and an LIG4 gene is a mutant type. Then, the number of cells was measured by trypan blue staining assay to confirm the degree of apoptosis. The RKO and LoVo human colon cancer cell lines were cultured under the same conditions as in Example 5. Compounds A and B, which are novel PARP/Tankyrase simultaneous inhibitors, were treated with 25 μM and 50 μM, respectively, for 48 hours. After 48 hours of culturing, the number of cells was measured by trypan blue staining assay to confirm the degree of apoptosis. […]
# [3] = system: HCT8 human colon cancer cell line; assay: Trypan blue staining apoptosis assay; assay type: cell-based; details: HCT8 (p53 WT/LIG4 WT); 25 μM and 50 μM, 48 hours
# From the text: as §2
# [4] = system: KM12C human colon cancer cell line; assay: Trypan blue staining apoptosis assay; assay type: cell-based; details: KM12C (p53 MT/LIG4 MT); 25 μM and 50 μM, 48 hours
# From the text: as §2
# [5] = system: LoVo human colon cancer cell line; assay: Trypan blue staining apoptosis assay; assay type: cell-based; details: LoVo (p53 WT/LIG4 MT); 25 μM and 50 μM, 48 hours
# From the text: as §1
# In order to analyze the degree of apoptosis of Compound A, which is a novel PARP/Tankyrase simultaneous inhibitor, according to the p53 genotype and an LIG4 genotype, the present inventors treated Compounds A and B, which are novel PARP/Tankyrase simultaneous inhibitors, in the RKO and LoVo human colon cancer cell lines in which the p53 gene is a normal type and an LIG4 gene is a mutant type. Then, the number of cells was measured by trypan blue staining assay to confirm the degree of apoptosis. The RKO and LoVo human colon cancer cell lines were cultured under the same conditions as in Example 5. […] After 48 hours of culturing, the number of cells was measured by trypan blue staining assay to confirm the degree of apoptosis.
# [6] = system: KM12C human colon cancer cell line; assay: Xenograft tumor inhibition; assay type: in vivo, nude mouse (BALB/c-nude); details: KM12C (p53 MT/LIG4 MT) xenograft, orally 25 mpk and 50 mpk daily
# From the text: (§3) In order to analyze the tumor inhibition effect on Compound A, which is a novel PARP/Tankyrase simultaneous inhibitor, in an in vivo animal model when a p53 genotype and an LIG4 genotype are mutant types, the present inventors transplanted the KM12C human colon cancer cell line in which a p53 genotype and an LIG4 genotype are mutant types into a 6-week-old nude mouse (BALB/c-nude, purchased from the central experimental animal) and administered with Compound A, which is a novel PARP/Tankyrase simultaneous inhibitor, and olaparib, which is a competitive drug PARP inhibitor. Then, the size of tumor was measured to confirm the degree of tumor inhibition effect. The conditions and methods of the experiment were as follows: KM12C human colon cancer cell line in which a p53 genotype and an LIG4 genotype are mutant types was cultured in RPMI1640 (10% FBS, 1% penicillin/streptomycin). When the size of the tumor reached 100 mm^3 after being transplanted into a nude mouse per 1×10^7, Compound A, which is a novel PARP/Tankyrase simultaneous inhibitor, and olaparib, which is a competitive drug PARP inhibitor, were orally administered at 25 mpk and 50 mpk daily for a total of 18 days. The size of a tumor was measured every three days. After the completion of drug administration, the tumors were harvested and weighed.
# as §3, with “on Compound B, which is” for “on Compound A, which is”, “with Compound B, which is” for “with Compound A, which is”, “PARP/Tankyrase simultaneous inhibitor. Then,” for “PARP/Tankyrase simultaneous inhibitor, and olaparib, which is a competitive drug PARP inhibitor. Then,”, “1×10^7, Compound B, which is” for “1×10^7, Compound A, which is”, “simultaneous inhibitor, was orally administered” for “simultaneous inhibitor, and olaparib, which is a competitive drug PARP inhibitor, were orally administered”, “total of 15 days. The” for “total of 18 days. The”
Structure (SMILES),degree of apoptosis (trypan blue cell count) [1],degree of apoptosis (trypan blue cell count) [2],degree of apoptosis (trypan blue cell count) [3],degree of apoptosis (trypan blue cell count) [4],degree of apoptosis (trypan blue cell count) [5],tumor size ([6]; 18 days),tumor weight ([6]; 18 days),tumor size ([6]; 15 days),tumor weight ([6]; 15 days)
"CCOc1cc(CN(C)C)cc2[nH]c(=O)c3c(c12)NCCC3 [Compound A, 8-[(dimethylamino)methyl]-10-ethoxy-1,2,3,4-tetrahydrobenzo[h][1,6]naphthyridin-5(6H)-one]",low apoptosis effect; also recorded: No apoptosis occurred,apoptosis was induced; also recorded: possible to observe the apoptosis,No apoptosis occurred,No apoptosis occurred,apoptosis was induced,no change,no change,,
"N#Cc1ccc(N2CCN(Cc3ccc4c5c(c(=O)[nH]c4c3)CCCN5)CC2)nc1 [Compound B, 6-{4-[(5-oxo-1,2,3,4,5,6-hexahydrobenzo[h][1,6]naphthyridin-8-yl)methyl]piperazin-1-yl}nicotinonitrile]",No apoptosis occurred,apoptosis effect is high by virtue of Compound B as compared to Compound A; also recorded: possible to observe the apoptosis,No apoptosis occurred,No apoptosis occurred,apoptosis effect is high by virtue of Compound B as compared to Compound A,,,no change,no change
"O=C(c1cc(Cc2n[nH]c(=O)c3ccccc23)ccc1F)N1CCN(C(=O)C2CC2)CC1 [olaparib, reference compound]",low apoptosis effect; also recorded: No apoptosis occurred,no apoptosis effect was shown; also recorded: no change in apoptosis,No apoptosis occurred,No apoptosis occurred,no apoptosis effect was shown,no change,no change,,
